Source: PubChem BioAssay AID248 (DTP/NCI, 2004)
Inconclusive results and toxic doses are left out.

System: L1210 leukemia ip in BDF1 mice, survival T/C
Assay: NCI In Vivo Anticancer Drug Screen. Data for tumor model L1210 Leukemia (intraperitoneal) in B6D2F1 (BDF1) mice
Conditions: endpoint: mean survival time, higher = longer survival
In short: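 Value reflects the ratio of survival in compound-treated mice to survival in vehicle-treated controls, with both groups carrying the same transplanted tumor.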

[1] = dose: 100.0 mg/kg/injection, schedule: Q01DX009 (ip), vehicle: saline with Tween-80
[2] = dose: 100.0 mg/kg/injection, schedule: Q04DX003 (ip), vehicle: saline with Tween-80
[3] = dose: 200.0 mg/kg/injection, schedule: Q01DX009 (ip), vehicle: saline with Tween-80
[4] = dose: 200.0 mg/kg/injection, schedule: Q04DX003 (ip), vehicle: saline with Tween-80
[5] = dose: 400.0 mg/kg/injection, schedule: Q01DX009 (ip), vehicle: saline with Tween-80
[6] = dose: 400.0 mg/kg/injection, schedule: Q04DX003 (ip), vehicle: saline with Tween-80
[7] = dose: 12.5 mg/kg/injection, schedule: Q01DX009 (ip), vehicle: saline
[8] = dose: 25.0 mg/kg/injection, schedule: Q01DX009 (ip), vehicle: saline
[9] = dose: 100.0 mg/kg/injection, schedule: Q01DX009 (ip), vehicle: saline
[10] = dose: 100.0 mg/kg/injection, schedule: Q04DX003 (ip), vehicle: saline
[11] = dose: 200.0 mg/kg/injection, schedule: Q01DX009 (ip), vehicle: saline
[12] = dose: 200.0 mg/kg/injection, schedule: Q04DX003 (ip), vehicle: saline
[13] = dose: 400.0 mg/kg/injection, schedule: Q04DX003 (ip), vehicle: saline
[14] = dose: 100.0 mg/kg/injection, schedule: Q04DX003 (ip), vehicle: Klucel (hydroxypropylcellulose) (HPC)
[15] = dose: 200.0 mg/kg/injection, schedule: Q04DX003 (ip), vehicle: Klucel (hydroxypropylcellulose) (HPC)

Question: What does the source list for `CCCCCCCCCCCC(=O)Nc1ccccc1C(F)(F)F`?
Answer: T/C (dose: 100.0 mg/kg/injection, schedule: Q01DX009 (ip), vehicle: acetone): 96 % of control; T/C (dose: 200.0 mg/kg/injection, schedule: Q01DX009 (ip), vehicle: acetone): 95 % of control; T/C (dose: 400.0 mg/kg/injection, schedule: Q01DX009 (ip), vehicle: acetone): 94 % of control

Question: For `O=C(CSc1cc(-c2ccc(Cl)cc2)s[s+]1)c1ccccc1`, which T/C [1] is on record?
Answer: 100 % of control

Question: And the T/C [2]?
Answer: 93 % of control

Question: What about the T/C [3] of the same compound?
Answer: 97 % of control

Question: What about the T/C [4] of the same compound?
Answer: 96 % of control

Question: And the T/C [5]?
Answer: 103 % of control

Question: And the T/C [6]?
Answer: 100 % of control

Question: For `COC1OC2COC(c3ccccc3)OC2C(N=Cc2ccccc2)C1O` (stereo unspecified), which T/C [1] is on record?
Answer: 97 % of control

Question: What about the T/C [3] of the same compound?
Answer: 101 % of control

Question: And the T/C [5]?
Answer: 98 % of control

Question: Which results are given for `N/C=N/O`?
Answer: T/C [7]: 105 % of control; T/C [8]: 105 % of control; T/C (dose: 50.0 mg/kg/injection, schedule: Q01DX009 (ip), vehicle: saline): 111 % of control; T/C [9]: 111 % of control; T/C [10]: 101 % of control; T/C [11]: 121 % of control; T/C [12]: 111 % of control; T/C (dose: 400.0 mg/kg/injection, schedule: Q01DX009 (ip), vehicle: saline): 158 % of control; T/C [13]: 97 % of control

Question: What does the source list for `COc1cc(Br)c(CCBr)cc1OC`?
Answer: T/C (dose: 25.0 mg/kg/injection, schedule: Q01DX009 (ip), vehicle: Klucel (hydroxypropylcellulose) (HPC)): 98 % of control; T/C (dose: 50.0 mg/kg/injection, schedule: Q01DX009 (ip), vehicle: Klucel (hydroxypropylcellulose) (HPC)): 94 % of control; T/C (dose: 100.0 mg/kg/injection, schedule: Q01DX009 (ip), vehicle: Klucel (hydroxypropylcellulose) (HPC)): 100 % of control; T/C [2]: 96 % of control; T/C [4]: 94 % of control; T/C [6]: 104 % of control

Question: Which results are given for `Cc1cccc(NC(=O)c2c(Cl)c(Cl)c(Cl)c(Cl)c2C(=O)O)c1C`?
Answer: T/C (dose: 100.0 mg/kg/injection, schedule: Q04DX002 (ip), vehicle: Klucel (hydroxypropylcellulose) (HPC)): 91 % of control; T/C (dose: 200.0 mg/kg/injection, schedule: Q04DX002 (ip), vehicle: Klucel (hydroxypropylcellulose) (HPC)): 100 % of control

Question: How did the T/C (dose: 100.0 mg/kg/injection, schedule: Q04DX003 (ip), vehicle: acetone) turn out when `O=C1/C(=C/c2ccccc2[N+](=O)[O-])CCc2ccccc21` was run?
Answer: 96 % of control

Question: And the T/C (dose: 200.0 mg/kg/injection, schedule: Q04DX003 (ip), vehicle: acetone)?
Answer: 106 % of control

Question: And the T/C (dose: 400.0 mg/kg/injection, schedule: Q04DX003 (ip), vehicle: acetone)?
Answer: 95 % of control

Question: For `CNC(=O)N/N=C(C)\C=N\NC(=O)NC`, which T/C (dose: 75.0 mg/kg/injection, schedule: Q01DX001 (ip), vehicle: saline) is on record?
Answer: 97 % of control

Question: And the T/C (dose: 150.0 mg/kg/injection, schedule: Q01DX001 (ip), vehicle: saline)?
Answer: 108 % of control

Question: What about the T/C (dose: 300.0 mg/kg/injection, schedule: Q01DX001 (ip), vehicle: saline) of the same compound?
Answer: 92 % of control

Question: How did the T/C (dose: 22.0 mg/kg/injection, schedule: Q01DX009 (ip), vehicle: carboxymethylcellulose (CMC)) turn out when `COc1cc2c(cc1NC(=O)N(CCCl)N=O)-c1ccccc1C2` was run?
Answer: 150 % of control

Question: And the T/C (dose: 33.0 mg/kg/injection, schedule: Q01DX009 (ip), vehicle: carboxymethylcellulose (CMC))?
Answer: 152 % of control

Question: What about the T/C (dose: 50.0 mg/kg/injection, schedule: Q01DX009 (ip), vehicle: carboxymethylcellulose (CMC)) of the same compound?
Answer: 169 % of control

Question: What about the T/C (dose: 75.0 mg/kg/injection, schedule: Q01DX009 (ip), vehicle: carboxymethylcellulose (CMC)) of the same compound?
Answer: 152 % of control

Question: What about the T/C (dose: 118.0 mg/kg/injection, schedule: Q01DX009 (ip), vehicle: carboxymethylcellulose (CMC)) of the same compound?
Answer: 250 % of control

Question: And the T/C (dose: 177.0 mg/kg/injection, schedule: Q01DX001 (ip), vehicle: other)?
Answer: 123 % of control

Question: And the T/C (dose: 177.0 mg/kg/injection, schedule: Q01DX009 (ip), vehicle: carboxymethylcellulose (CMC))?
Answer: 256 % of control

Question: And the T/C (dose: 266.0 mg/kg/injection, schedule: Q01DX001 (ip), vehicle: carboxymethylcellulose (CMC))?
Answer: 151 % of control

Question: What about the T/C (dose: 266.0 mg/kg/injection, schedule: Q01DX001 (ip), vehicle: other) of the same compound?
Answer: 155 % of control

Question: What about the T/C (dose: 266.0 mg/kg/injection, schedule: Q01DX009 (ip), vehicle: carboxymethylcellulose (CMC)) of the same compound?
Answer: 284 % of control

Question: What about the T/C (dose: 400.0 mg/kg/injection, schedule: Q01DX001 (ip), vehicle: carboxymethylcellulose (CMC)) of the same compound?
Answer: 173 % of control

Question: And the T/C (dose: 400.0 mg/kg/injection, schedule: Q01DX001 (ip), vehicle: other)?
Answer: 170 % of control

Question: And the T/C (dose: 400.0 mg/kg/injection, schedule: Q01DX009 (ip), vehicle: carboxymethylcellulose (CMC))?
Answer: 196 % of control

Question: What about the T/C (dose: 600.0 mg/kg/injection, schedule: Q01DX001 (ip), vehicle: carboxymethylcellulose (CMC)) of the same compound?
Answer: 196 % of control

Question: What about the T/C (dose: 600.0 mg/kg/injection, schedule: Q01DX001 (ip), vehicle: other) of the same compound?
Answer: 164 % of control

Question: How did the T/C (dose: 100.0 mg/kg/injection, schedule: Q04DX002 (ip), vehicle: saline with Tween-80) turn out when `Oc1ccc(CCCc2ccc3c(c2)OCO3)cc1` was run?
Answer: 104 % of control

Question: What about the T/C (dose: 200.0 mg/kg/injection, schedule: Q04DX002 (ip), vehicle: saline with Tween-80) of the same compound?
Answer: 104 % of control

Question: What does the source list for `c1ccc(C(N2CCCCC2)N2CCCCC2)cc1`?
Answer: T/C [14]: 106 % of control; T/C [15]: 103 % of control

Question: Which results are given for `CCS(=O)CCNC(=O)NS(=O)(=O)c1ccc(C)cc1` (stereo unspecified)?
Answer: T/C [2]: 100 % of control; T/C [4]: 101 % of control; T/C [6]: 97 % of control

Question: Which T/C (dose: 25.0 mg/kg/injection, schedule: Q01DX Z (ip), vehicle: methylcellulose (MC)) does the source give for `Cc1cnc(SCc2ccc(Cl)cc2)nc1N(C)C` here?
Answer: 90 % of control

Question: And the T/C (dose: 50.0 mg/kg/injection, schedule: Q01DX Z (ip), vehicle: methylcellulose (MC))?
Answer: 100 % of control

Question: What does the source list for `C[N+](C)(C)CCOC(=O)c1ccc(CBr)c(CBr)c1`?
Answer: T/C (dose: 6.25 mg/kg/injection, schedule: Q01DX009 (ip), vehicle: saline): 97 % of control; T/C (dose: 6.25 mg/kg/injection, schedule: Q04DX003 (ip), vehicle: saline): 96 % of control; T/C [7]: 99 % of control; T/C (dose: 12.5 mg/kg/injection, schedule: Q04DX003 (ip), vehicle: saline): 96 % of control; T/C [8]: 104 % of control; T/C (dose: 25.0 mg/kg/injection, schedule: Q04DX003 (ip), vehicle: saline): 98 % of control

Question: Which results are given for `CC1(C)CC(=O)c2c(cc3oc(=O)ccc3c2O)O1`?
Answer: T/C [14]: 102 % of control; T/C [15]: 105 % of control; T/C (dose: 400.0 mg/kg/injection, schedule: Q04DX003 (ip), vehicle: Klucel (hydroxypropylcellulose) (HPC)): 98 % of control

Question: `CC(O)C(C)(O)C(=O)O` (stereo unspecified) was tested. Which T/C [9] did it give?
Answer: 100 % of control

Question: And the T/C [10]?
Answer: 104 % of control

Question: What about the T/C [11] of the same compound?
Answer: 90 % of control

Question: What about the T/C [12] of the same compound?
Answer: 95 % of control

Question: And the T/C [13]?
Answer: 101 % of control

Question: Which results are given for `CCCCCCNP(=O)(OCC)OCC`?
Answer: T/C (dose: 50.0 mg/kg/injection, schedule: Q01DX001 (ip), vehicle: carboxymethylcellulose (CMC)): 95 % of control; T/C (dose: 100.0 mg/kg/injection, schedule: Q01DX001 (ip), vehicle: carboxymethylcellulose (CMC)): 93 % of control; T/C (dose: 200.0 mg/kg/injection, schedule: Q01DX001 (ip), vehicle: carboxymethylcellulose (CMC)): 101 % of control

Question: Which T/C [10] does the source give for `NS(=O)(=O)c1c[nH]c(=O)[nH]c1=O` here?
Answer: 104 % of control

Question: And the T/C [12]?
Answer: 102 % of control

Question: And the T/C [13]?
Answer: 102 % of control

Question: Which results are given for `CCC1CN1C(=O)c1ccc(OP(=O)(N2CC2CC)N2CC2CC)cc1` (stereo unspecified)?
Answer: T/C (dose: 50.0 mg/kg/injection, schedule: Q01DX001 (ip), vehicle: saline): 102 % of control; T/C (dose: 100.0 mg/kg/injection, schedule: Q01DX001 (ip), vehicle: saline): 102 % of control; T/C (dose: 200.0 mg/kg/injection, schedule: Q01DX001 (ip), vehicle: saline): 105 % of control; T/C (dose: 400.0 mg/kg/injection, schedule: Q01DX001 (ip), vehicle: saline): 102 % of control

Question: Which T/C (dose: 50.0 mg/kg/injection, schedule: Q01DX005 (ip), vehicle: other) does the source give for `OCC1OC(n2ncc3nccnc32)C(O)C1O` (stereo unspecified) here?
Answer: 105 % of control

Question: And the T/C (dose: 100.0 mg/kg/injection, schedule: Q01DX005 (ip), vehicle: other)?
Answer: 105 % of control

Question: And the T/C (dose: 200.0 mg/kg/injection, schedule: Q01DX005 (ip), vehicle: other)?
Answer: 91 % of control
